This is an account of results in ChEMBL document CHEMBL3880389, “Heterocyclic compounds as inhibitors of the sodium iodide symporter” (2014).

Molecules are shown by their SMILES.

In one experiment the target is T1, Sodium/iodide cotransporter (Rattus norvegicus, UniProt Q63008).
T1 sequence (Q63008 whole entry): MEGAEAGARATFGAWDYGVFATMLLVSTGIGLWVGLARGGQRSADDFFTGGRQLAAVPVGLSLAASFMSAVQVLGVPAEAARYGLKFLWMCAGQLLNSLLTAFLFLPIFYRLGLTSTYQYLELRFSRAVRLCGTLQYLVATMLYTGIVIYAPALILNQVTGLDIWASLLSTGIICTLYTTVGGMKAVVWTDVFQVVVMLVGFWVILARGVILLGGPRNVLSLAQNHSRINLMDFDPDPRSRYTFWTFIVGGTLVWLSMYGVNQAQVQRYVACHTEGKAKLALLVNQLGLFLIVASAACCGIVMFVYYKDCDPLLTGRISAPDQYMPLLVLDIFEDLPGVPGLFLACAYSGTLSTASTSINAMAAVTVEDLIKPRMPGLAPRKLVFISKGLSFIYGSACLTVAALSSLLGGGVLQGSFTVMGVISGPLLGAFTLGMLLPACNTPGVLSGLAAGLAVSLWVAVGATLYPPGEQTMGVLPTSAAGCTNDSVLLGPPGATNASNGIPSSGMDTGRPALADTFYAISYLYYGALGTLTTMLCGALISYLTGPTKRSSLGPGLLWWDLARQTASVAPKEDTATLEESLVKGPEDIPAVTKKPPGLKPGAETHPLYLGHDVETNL
Briefly: Inhibition of sodium iodide symporter in rat FRTL5 cells assessed as decrease in [125I]-sodium iodide uptake after 60 mins by scintillation counting method. The class given is cell-based, FRTL-5.
With `O=[N+]([O-])c1cccc(C2NCCc3c2[nH]c2ccccc32)c1` (configuration not stated), the half-inhibitory concentration (IC50) is 300 nM.

Take `Brc1cccc(C2NCCc3c2[nH]c2ccccc32)c1` (configuration not stated): the 50% inhibitory concentration (IC50) is 400 nM.

A further experiment has as its target T1, Sodium/iodide cotransporter. In words: Inhibition of sodium iodide symporter in rat FRTL5 cells assessed as decrease in sodium iodide uptake after 60 mins by scintillation counting method. Type of experiment: cell-based, FRTL-5.
On to `F[B-](F)(F)F`, for which the half-inhibitory concentration (IC50) came out at 750 nM. Consider `O=[N+]([O-])O`, for which the IC50 amounted to 250000 nM.

For `F[P-](F)(F)(F)(F)F.[Na+]`, the concentration for half-maximal inhibition (IC50) came out at 9 nM.

In the case of `[O-][Cl+3]([O-])([O-])O` [PERCHLORATE], the half-maximal inhibitory concentration (IC50) worked out at 140 nM. Still for that read-out and setting: for `N#CS` [THIOCYANIC ACID] the value was 14000 nM.
